“Also recorded” adds a separate entry of the source.
Assays:
[1] = tested on: human umbilical vein endothelial cells (HUVECs); test: Cell proliferation assay (BrdU incorporation); assay type: cell-based
Experimental: (§1) To evaluate the effect of TMD proteins on DNA synthesis in human umbilical vein endothelial cells (HUVECs), we performed a 5-bromo-2′-deoxyuridine (BrdU) incorporation assay with a commercial quantification kit (Roche Diagnostic GmbH) and manufacturer's protocol. Mitogenic effects induced by TMD proteins were also determined in the presence of polyclonal rabbit anti-TMD23 antibody (prepared by GlycoNex, Inc., Taiwan) that was purified by protein G-Sepharose column (Amersham Pharmacia Biotech AB).
as §1, with “(HUVECs),” for “(HUVECs), we performed”, “assay were performed” for “assay”

[2] = tested on: HUVECs; test: Chemotaxis assay (Transwell); assay type: cell-based, human
Experimental: (§2) The chemotactic motility of HUVECs was assayed using Transwell (Costar) with 6.5-mm diameter polycarbonate filters (8-μm pore size). The lower filter surface was coated with 10 μg gelatin (Sigma-Aldrich). Various concentrations of TMD23 in the absence or presence of 10 μg/mL polyclonal rabbit anti-TMD23 antibody or 10 ng/mL vascular endothelial growth factor (VEGF) (R & D Systems, Inc.) in M199 were placed in the lower wells. One hundred mL cell suspension containing 1×10^5 cells was loaded into each of upper well. The chamber was incubated at 37° C. for 4 h. Cells were fixed with methanol and stained with 4′,6′-diamidino-2-phenylindole (DAPI). Chemotaxis was quantified with optical microscopy (Leica) at 100× magnification using MetaMorph imaging software (Universal Imaging Corporation) by counting the cells that migrated to the filter's lower side. Five random fields in each well were counted. Each sample was assayed in triplicate, and assays were repeated three times. To determine the role of extracellular signal-regulated kinase 1/2 (ERK1/2), p38 mitogen-activated protein kinase (MAPK), and phosphatidylinositol 3-kinase (PI3 kinase)-protein kinase B/Akt (Akt) in TMD23-mediated cell migration, assays were performed in the presence of U0126, a MAPK/ERK kinase (MEK) inhibitor, SB 203580, a p38 MAPK inhibitor, and LY 294002, a PI3 kinase inhibitor. Cell viability as determined by trypan blue staining was not altered by treatment. 00126 was purchased from Promega, with SB 203580 and LY 294002 from Calbiochem.
as §2, with “hundred μL” for “hundred mL”, “MAPK/ERK kinase-(MEK)” for “MAPK/ERK kinase (MEK)”, “treatment. U0126” for “treatment. 00126”

TMD23: Recombinant human thrombomodulin fragment, amino acids Ala242-Ser515 of SEQ ID NO: 2: six EGF-like structures (D2) plus Ser/Thr-rich domain D3
Stimulation of HUVEC proliferation ([1]; 4.5 nM (150 ng/mL)): roughly two-fold
DNA synthesis in HUVECs ([1]; BrdU incorporation, FIG. 2A): stimulated DNA synthesis
Mitogenic activity / stimulation of HUVEC proliferation compared with TMD2 ([1]; FIG. 2A): higher mitogenic activity than TMD2; also recorded: more effective than TMD2
Effect on HUVEC migration compared with VEGF (10 ng/mL) ([2]; 10 ng/mL TMD23): comparable with that of VEGF
Migratory activity increased over the control ([2]; 10 ng/mL TMD23, 4 h): 80%
Chemotactic response in HUVECs ([2]; FIG. 2B): markedly induced a dose-dependent chemotactic response
